Data set [1] is described as follows: Plasma protein binding (equilibrium dialysis). The data set is classed as in vitro ADME. Conditions: mouse plasma. How it is done:
Plasma protein binding experiments: In brief, a 96-well equilibrium dialysis apparatus was used to determine the free fraction in plasma for each compound (HT Dialysis LLC, Gales Ferry, CT, USA). Membranes (12-14 kDa cutoff) were conditioned in deionised H2O for 60 min, followed by conditioning in 80:20 deionised H2O/EtOH for 20 min, and then rinsed in isotonic buffer before use. Female CD1 mouse plasma was removed from the freezer and allowed to thaw on the day of experiment. Thawed plasma was then centrifuged (Allegra […], Beckman Coulter, USA), spiked with test compound (10 μg g^-1), and 150 μL aliquots (n=6 replicate determinations) loaded into the 96-well equilibrium dialysis plate. Dialysis against isotonic buffer (150 μL) was carried out for 5 h in a temperature-controlled incubator at ∼37 °C (Barworld Scientific Ltd., UK) using an orbital microplate shaker at 125 rpm (Barworld Scientific). At the end of the incubation period, aliquots of plasma or buffer were transferred to micronic tubes (Micronic B.V., the Netherlands), and the composition in each tube was balanced with control fluid such that the volume of buffer to plasma is the same. Sample extraction was performed by the addition of 400 μL MeCN containing an appropriate internal standard. Samples were allowed to mix for 1 min and then centrifuged at 3000 rpm in 96-well blocks for 15 min (Allegra […], Beckman Coulter, USA). All samples were analysed by UPLC-MS/MS on a Quattro Premier XE Mass Spectrometer (Waters Corp.). The unbound fraction was determined as the ratio of the peak area in buffer to that in plasma.
Background: Equilibrium dialysis compares concentrations on both sides of a semipermeable membrane.

Data set [2] can be described thus: In vivo pharmacokinetics in mice. The conditions noted are these: for Tmax: female, NMRI; for Tmax / Cmax / half-life / AUC(0-t): mouse, whole blood, blood; for AUC(0-t): read-out: AUC(0–8) (converted). Further details: species or system female NMRI mice. How it is done: In vivo pharmacokinetics in mice: Compounds 1 and 28 were dosed orally by gavage as a solution at 5 mg free base per kg or 20 mg free base per kg, respectively (dose volume: 5 or 10 mL kg^−1, dose vehicle: 5 % DMSO, 40 % PEG400, 55 % distilled H2O) to female NMRI mice (n=3). Compounds 28, 38, and 56 were dosed as a bolus solution intraperitoneally at 10 (56) or 20 (28 and 38) mg free base per kg (dose volume: 10 mL kg^−1, dose vehicle: 5 % DMSO, 40 % PEG400, 55 % sterile H2O) to female NMRI mice (n=3). Female NMRI mice were chosen, as these represent the sex and strain used for the stage-1 and stage-2 HAT efficacy models. Blood samples were taken from each mouse at 5 (i.p. only), 15 and 30 min, 1, 2, 4, 6 and 8 h post-dose and mixed with two volumes of distilled H2O. After suitable sample preparation, the concentration of each compound in blood was determined by UPLC–MS/MS using a Quattro Premier XE (Waters, USA). Pharmacokinetic parameters were derived from the mean blood concentration time curve using PKsolutions software ver. 2.0 (Summit Research Services, USA).

The target in another data set is RSK2 (Homo sapiens, UniProt P51812). As to the kind of experiment: Kinase panel: RSK2. Type of data set: biochemical, human/mammalian. The conditions noted are these: compound at 10 μM, read-out: % of activity respect of the control. How it is done: The DDU kinase-focused compound set contains lead-like scaffolds that are designed to target protein kinases; they have kinase hinge binding motifs. Four of the 1H-imidazopyrazinones were screened against a human/mammalian kinase panel at the University of Dundee (http://www.kinase-screen.mrc.ac.uk) at a concentration of 10 μM. At the time of testing the panel contained 79 mammalian kinases selected to provide a broad coverage of the mammalian kinome (∼500 kinases in the human genome).[3] None of the compounds were active against any of the kinases at 10 μM.
Chain of RSK2 (P51812 whole entry): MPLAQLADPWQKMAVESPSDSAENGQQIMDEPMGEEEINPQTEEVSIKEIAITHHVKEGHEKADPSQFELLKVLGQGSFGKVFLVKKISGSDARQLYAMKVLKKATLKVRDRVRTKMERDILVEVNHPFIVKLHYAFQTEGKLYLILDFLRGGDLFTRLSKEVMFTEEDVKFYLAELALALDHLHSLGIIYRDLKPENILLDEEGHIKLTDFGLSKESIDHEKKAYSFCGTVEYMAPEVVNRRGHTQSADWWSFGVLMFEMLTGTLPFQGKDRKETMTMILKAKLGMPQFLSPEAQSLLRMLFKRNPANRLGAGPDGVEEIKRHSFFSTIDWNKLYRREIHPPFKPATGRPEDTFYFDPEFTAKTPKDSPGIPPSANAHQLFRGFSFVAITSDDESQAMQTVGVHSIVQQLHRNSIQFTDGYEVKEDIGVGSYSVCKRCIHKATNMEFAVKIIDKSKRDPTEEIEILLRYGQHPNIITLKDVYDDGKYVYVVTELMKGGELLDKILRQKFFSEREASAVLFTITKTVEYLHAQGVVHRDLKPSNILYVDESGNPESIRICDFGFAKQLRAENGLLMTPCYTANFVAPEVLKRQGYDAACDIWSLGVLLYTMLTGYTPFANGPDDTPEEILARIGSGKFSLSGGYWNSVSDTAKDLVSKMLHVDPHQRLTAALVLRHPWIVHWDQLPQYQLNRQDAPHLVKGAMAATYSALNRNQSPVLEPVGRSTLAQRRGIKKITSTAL

Data set [3] has as its system T. brucei bloodstream-stage cells. As to the kind of experiment: Static–cidal (SC) assay. Type of data set: cell-based, Trypanosoma brucei brucei. The conditions noted are these: for EC50: 48 h.
Setting [4] is: po, 5 mg kg^−1, female NMRI mice.
Setting [5] is: ip, 20 mg kg^−1, female NMRI mice.
Setting [6] is: po, 20 mg kg^−1, female NMRI mice.

Usually Tmax stands for the time at which the peak concentration occurs. By Cmax is commonly meant the peak of the concentration-time curve. A word on the half-life: it is the time needed for the level to fall by half in the phase considered. A word on the EC50: it is the concentration that produces a half-maximal response.

“Also recorded” adds a separate entry of the source. Like-named read-outs stand apart in the source and are kept apart here. A value given as a limit tells only on which side of the number the result lay.

As for `CC(c1ccccc1)n1c(=O)[nH]c2ncc(-c3ccc(F)cc3)nc21` (stereo not shown) [Compound 1], in data set [1], the “protein binding (unbound)” value is listed as 0.3 % unbound. For the same molecule, the Tmax in data set [2] (po, 5 mg/kg, 5 mg kg^−1, female NMRI mice) is about 2 h. In data set [2] (setting [4]), the Cmax was found to be 110 ng/mL, the half-life was 3 h and the AUC(0-t) was 600 ng·h/mL. The remaining activity at 10 µM at RSK2 amounted to 110%.
For `O=c1[nH]c2ncc(-c3ccc(F)cc3)nc2n1CC1CC1` [Compound 10], the remaining activity at 10 µM on RSK2 amounted to 113%.
With `O=c1[nH]c2ncc(-c3ccc(F)cc3)nc2n1C1CCCCC1` [Compound 12, 1-Cyclohexyl-6-(4-fluorophenyl)-1H-imidazo[4,5-b]pyrazin-2(3H)-one], the remaining activity at 10 µM on RSK2 is 104%.
Still for that read-out and setting: the same measure for `C[C@H](c1ccccc1)n1c(=O)[nH]c2ncc(-c3ccccc3)nc21` [Compound 14, (R)-6-Phenyl-1-(1-phenylethyl)-1H-imidazo[4,5-b]pyrazin-2(3H)-one]: 101%.
As for `O=c1[nH]c2ncc(-c3ccccc3CO)nc2n1C1CCCCC1` [Compound 28], the fraction unbound at 5 h, 10 μg g^−1 in data set [1] (female, CD1, equilibrium dialysis, read-out: PPB) was 0.072. The “protein binding (unbound)” value in data set [1] amounted to 7.2 % unbound. Besides, the PPB in data set [1] (equilibrium dialysis) was 7.2 % free. The “time to reach Cmax” value in data set [2] (dosed orally, 20 mg kg^−1) amounted to 15 min. Also, the Tmax in data set [2] (ip, 20 mg/kg, 20 mg kg^−1, female NMRI mice) came to 0.083 h; in data set [2] (po, 20 mg/kg, 20 mg kg^−1, female NMRI mice), 0.25 h. Besides, the Cmax amounted to 5200 ng/mL in data set [2] (setting [5]) and 910 ng/mL in data set [2] (setting [6]). For the same molecule, the values for the half-life in data set [2] (setting [5]) and in data set [2] (setting [6]) were 1.2 h and 1.7 h, respectively. Besides, the results for the AUC(0-t) in data set [2] (setting [5]) and in data set [2] (setting [6]) were 3830 ng·h/mL and 1150 ng·h/mL, respectively. The EC50 is 100 nM in data set [3] (Trypanosoma brucei, static cidal EC50, first site/phase, read-out: SC EC50(1)) and over 50000 nM in data set [3] (Trypanosoma brucei, static cidal EC50, second site/phase, read-out: SC EC50(2)). The MCC in data set [3] (Trypanosoma brucei, static–cidal assay in triplicate, read-out: MCC (minimal cidal concentration)) is over 50 µM. The “mode of antiparasitic effect (in words)” value in data set [3] (text and figure legend, at concentrations tested) is given as “growth-slowing or static behaviour; also recorded: growth-slowing”.

Values taken from publication PMC4648050, “Discovery of Inhibitors of Trypanosoma brucei by Phenotypic Screening of a Focused Protein Kinase Library” (Chemmedchem, 2015).
